This passage reports EC50 and ED50 results from ChEMBL document CHEMBL3232880, “The chemistry and biology of febrifugine and halofuginone” (Bioorg Med Chem, 2014).

One test has as its system Plasmodium falciparum. Description: Antimalarial activity against Plasmodium falciparum assessed as growth inhibition. Type of test: functional, organism-based.
For the molecule `COCO[C@H]1CCCN2CO[C@H](Cn3cnc4ccccc4c3=O)C[C@H]12`, the EC50 came to 8.6 nM.
For `CC(=O)O[C@H]1CCCN(C(C)=O)[C@@H]1CC(=O)Cn1cnc2ccccc2c1=O`, the EC50 was determined as 910 nM.
Still for that read-out and setting: the result for `CCOC(=O)N1CCC[C@H](O)[C@H]1CC(=O)Cn1cnc2ccccc2c1=O` reads 4800 nM; that for `O=c1c2ccccc2ncn1C[C@@H]1C[C@@H]2[C@@H](O)CCCN2CO1`, 3.7 nM; that for `O=C(C[C@H]1NCCCC1=O)Cn1cnc2ccccc2c1=O`, 20 nM.

A further test has as its system Plasmodium falciparum. Description: Antimalarial activity against chloroquine-sensitive Plasmodium falciparum FCR-3 assessed as growth inhibition. Type of test: functional, organism-based.
Take `O=C(C[C@@H]1NCCC[C@H]1O)Cn1cnc2ccccc2c1=O` (stereo in doubt; (-)-1) [FEBRIFUGINE]: the EC50 turned out to be 200 nM.
Consider `O=C(C[C@@H]1NCCC[C@H]1O)Cn1cnc2ccccc2c1=O` (stereo in doubt; (+)-1) [FEBRIFUGINE], for which the EC50 was determined as 0.076 nM.

The next test concerns Plasmodium berghei. The test can be described thus: Antimalarial activity against Plasmodium berghei infected in mouse. The test is classed as functional.
For the molecule `O=C(C[C@@H]1NCCC[C@H]1O)Cn1cnc2ccccc2c1=O` (stereo in doubt; (+)-1) [FEBRIFUGINE], the ED50 is 0.6 mg/kg/day.
Molecule `O=C(C[C@H]1NCC[C@H](O)[C@@H]1O)Cn1cnc2ccccc2c1=O` had an ED50 of 2.4 mg/kg/day.
On the same count and under the same terms, the result for `O=C(C[C@H]1NCCC[C@@H]1O)Cn1cnc2ccc(O)cc2c1=O` reads 0.3 mg/kg/day.
